The text below walks through data of ChEMBL document CHEMBL1146527, “The guineamides, novel cyclic depsipeptides from a Papua New Guinea collection of the marine cyanobacterium Lyngbya majuscula” (J Nat Prod, 2003).

Active and inactive are the calls of the source. No cut-off for these calls is given here.

The IC50 is the concentration that gives 50% inhibition. Higher therefore signals weaker potency in that assay.

Assay [1] has as its system N2a. Briefly: Cytotoxicity against mouse Neuro2a cells at 10 ug/mL. It counts as functional, cell-based.
Assay [2] can be described thus: Cytotoxicity against mouse Neuro2a cells. In kind it is functional, cell-based. The settings on record: N2a.

`CC[C@H]1NC(=O)c2csc(n2)[C@H](C)NC(=O)[C@H](Cc2ccccc2)N(C)C(=O)[C@H](C(C)C)N(C)C(=O)[C@H](C)OC(=O)[C@H]1C`: the result in assay [1] was inactive.

For `C#CCCCC1NC(=O)[C@H](C)N(C)C(=O)[C@H](C(C)C)NC(=O)[C@H](Cc2ccc(OC)cc2)N(C)C(=O)C(C(C)CC)OC(=O)C1C` (stereo partly drawn) [GUINEAMIDE C], the IC50 in assay [2] turned out to be 16 µM.

The compound `CC1NC(=O)c2csc(n2)[C@H](C)NC(=O)[C@H](Cc2ccccc2)N(C)C(=O)[C@H](C(C)C)N(C)C(=O)[C@H](C(C)C)OC(=O)C1C` (stereo partly drawn) [GUINEAMIDE B] came in with a half-maximal inhibitory concentration (IC50) in assay [2] of 15 µM.
